Experimental findings from patent US8987195B2 (priority 2012, dated 2015) are described below.

One assay concerns HCV genotype 1b replicon. Kind of assay: HCV replicon assay, genotype 1b replicon EC50. The assay is classed as cell-based, Hepatitis C virus. The settings on record: Hepatitis C virus, genotype 1b replicon, read-out: EC50 [gt-1b]. In a few lines: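 Readout was replicon RNA copy number, by 32P-probe protection or TaqMan normalized to cellular cyclophilin A RNA, or luciferase activity for luciferase:Neo^r fusion lines. Cells were exposed to serially diluted compound for 24-48 hours without G418, then washed and lysed. EC50 derived from four-parameter fit relative to DMSO.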

For assay [1], the target named is HCV NS3/4A protease genotype 1b (Hepatitis C virus genotype 1b, UniProt P26663). In words: HCV NS3/4A protease time-resolved fluorescence (TRF) assay, Ki against genotype 1b. The assay is classed as biochemical. The note with it: IC50 [gt-1b] (nM), NS3/4A genotype 1b, enzyme 0.2 nM. The method, boiled down:
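Ki was converted from fitted IC50 using IC50=Ki(1+[S]/KM) and 25 nM substrate. Protease (genotype 1b 0.2 nM, A156T 0.4 nM, 3a 0.025 nM) and compound were pre-mixed 30 min in pH 7.5 HEPES/NaCl/glycerol/DTT buffer. Cleavage then proceeded 2.5 h at room temperature, detected by time-resolved europium fluorescence (340/615 nm).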

Like-named read-outs stand apart in the source and are kept apart here.

For the compound `COc1ccc2nc(C(C)C)c3c(c2c1)C(F)(F)C[C@]1(C[C@H]2C(=O)N[C@]4(C(=O)NS(=O)(=O)C5(C)CC5)C[C@H]4/C=C\CCCCC[C@H](NC(=O)OC4CCCC4)C(=O)N2C1)O3` [Example 210, cyclopentyl [(2S,6S,12Z,13aS,14aR,16aS)-1′,1′-difluoro-9′-methoxy-14a-{[(1-methylcyclopropyl)sulfonyl]carbamoyl}-5,16-dioxo-5′-(propan-2-yl)-1,1′,2′,5,6,7,8,9,10,11,13a,14,14a,15,16,16a-hexadecahydrospiro[cyclopropa[e]pyrrolo[1,2-a][1,4]diazacyclopentadecine-2,3′-pyrano[2,3-c]quinolin]-6-yl]carbamate], the EC50 with HCV genotype 1b replicon was determined as 2.38 nM. In assay [1], this compound showed an IC50 of 0.008 nM.
On to `COc1ccc2nc(C(C)C)c3c(c2c1)C(F)(F)C[C@]1(C[C@H]2C(=O)N[C@]4(C(=O)NS(=O)(=O)C5(C)CC5)C[C@H]4/C=C\CCCCC[C@H](NC(=O)OCC(C)C)C(=O)N2C1)O3` [Example 211, 2-methylpropyl [(2S,6S,12Z,13aS,14aR,16aS)-1′,1′-difluoro-9′-methoxy-14a-{[(1-methylcyclopropyl)sulfonyl]carbamoyl}-5,16-dioxo-5′-(propan-2-yl)-1,1′,2′,5,6,7,8,9,10,11,13a,14,14a,15,16,16a-hexadecahydrospiro[cyclopropa[e]pyrrolo[1,2-a][1,4]diazacyclopentadecine-2,3′-pyrano[2,3-c]quinolin]-6-yl]carbamate], for which the EC50 in the assay with HCV genotype 1b replicon came to 3.54 nM. This compound also returned an IC50 in assay [1] of 0.006 nM.
As to `COc1ccc2nc(C(F)(F)F)c3c(c2c1)CC[C@]1(C[C@H]2C(=O)N[C@]4(C(=O)NS(=O)(=O)C5(C)CC5)C[C@H]4/C=C\CCCCC[C@H](NC(=O)OC4(C)CC4)C(=O)N2C1)O3` [Example 216, 1-methylcyclopropyl [(2R,6S,12Z,13aS,14aR,16aS)-9′-methoxy-14a-{[(1-methylcyclopropyl)sulfonyl]carbamoyl}-5,16-dioxo-5′-(trifluoromethyl)-1,1′,2′,5,6,7,8,9,10,11,13a,14,14a,15,16,16a-hexadecahydrospiro[cyclopropa[e]pyrrolo[1,2-a][1,4]diazacyclopentadecine-2,3′-pyrano[2,3-c]quinolin]-6-yl]carbamate], the 50% effective concentration (EC50) in the assay with HCV genotype 1b replicon is 6.43 nM. Moreover, the 50% inhibitory concentration (IC50) in assay [1] worked out at 0.013 nM.
The corresponding values for `COc1ccc2nc(C(F)(F)F)c3c(c2c1)CC[C@]1(C[C@H]2C(=O)N[C@]4(C(=O)NS(=O)(=O)C5(C)CC5)C[C@H]4/C=C\CCCCC[C@H](NC(=O)OC4CCCC4)C(=O)N2C1)O3` [Example 217, cyclopentyl [(2R,6S,12Z,13aS,14aR,16aS)-9′-methoxy-14a-{[(1-methylcyclopropyl)sulfonyl]carbamoyl}-5,16-dioxo-5′-(trifluoromethyl)-1,1′,2′,5,6,7,8,9,10,11,13a,14,14a,15,16,16a-hexadecahydrospiro[cyclopropa[e]pyrrolo[1,2-a][1,4]diazacyclopentadecine-2,3′-pyrano[2,3-c]quinolin]-6-yl]carbamate] are 10.3 nM and 0.024 nM.
The corresponding values for `Cc1nc2ccc(F)cc2c2c1O[C@]1(CC2)C[C@H]2C(=O)N[C@]3(C(=O)NS(=O)(=O)C4(C)CC4)C[C@H]3/C=C\CCCCC[C@H](NC(=O)OCC(C)C)C(=O)N2C1` [Example 218, 2-methylpropyl [(2R,6S,12Z,13aS,14aR,16aS)-9′-fluoro-5′-methyl-14a-{[(1-methylcyclopropyl)sulfonyl]carbamoyl}-5,16-dioxo-1,1′,2′,5,6,7,8,9,10,11,13a,14,14a,15,16,16a-hexadecahydrospiro[cyclopropa[e]pyrrolo[1,2-a][1,4]diazacyclopentadecine-2,3′-pyrano[2,3-c]quinolin]-6-yl]carbamate] are 2.15 nM and 0.005 nM.
The like results for `Cc1nc2ccc(F)cc2c2c1O[C@]1(CC2)C[C@H]2C(=O)N[C@]3(C(=O)NS(=O)(=O)C4(C)CC4)C[C@H]3/C=C\CCCCC[C@H](NC(=O)OC3CCCC3)C(=O)N2C1` [Example 219, cyclopentyl [(2R,6S,12Z,13aS,14aR,16aS)-9′-fluoro-5′-methyl-14a-{[(1-methylcyclopropyl)sulfonyl]carbamoyl}-5,16-dioxo-1,1′,2′,5,6,7,8,9,10,11,13a,14,14a,15,16,16a-hexadecahydrospiro[cyclopropa[e]pyrrolo[1,2-a][1,4]diazacyclopentadecine-2,3′-pyrano[2,3-c]quinolin]-6-yl]carbamate] were, in that order, 1.2 nM and 0.004 nM.
As for `Cc1nc2ccc(Cl)cc2c2c1O[C@]1(CC2)C[C@H]2C(=O)N[C@]3(C(=O)NS(=O)(=O)C4(C)CC4)C[C@H]3/C=C\CCCCC[C@H](NC(=O)OCC3CCC3)C(=O)N2C1` [Example 221, cyclobutylmethyl [(2R,6S,12Z,13aS,14aR,16aS)-9′-chloro-5′-methyl-14a-{[(1-methylcyclopropyl)sulfonyl]carbamoyl}-5,16-dioxo-1,1′,2′,5,6,7,8,9,10,11,13a,14,14a,15,16,16a-hexadecahydrospiro[cyclopropa[e]pyrrolo[1,2-a][1,4]diazacyclopentadecine-2,3′-pyrano[2,3-c]quinolin]-6-yl]carbamate], in the assay with HCV genotype 1b replicon, the EC50 was determined as 11.6 nM. The compound further registered an IC50 in assay [1] of 0.008 nM.
As to `Cc1nc2ccc(Cl)cc2c2c1O[C@]1(CC2)C[C@H]2C(=O)N[C@]3(C(=O)NS(=O)(=O)C4(C)CC4)C[C@H]3/C=C\CCCCC[C@H](NC(=O)OCC3CC3)C(=O)N2C1` [Example 222, cyclopropylmethyl [(2R,6S,12Z,13aS,14aR,16aS)-9′-chloro-5′-methyl-14a-{[(1-methylcyclopropyl)sulfonyl]carbamoyl}-5,16-dioxo-1,1′,2′,5,6,7,8,9,10,11,13a,14,14a,15,16,16a-hexadecahydrospiro[cyclopropa[e]pyrrolo[1,2-a][1,4]diazacyclopentadecine-2,3′-pyrano[2,3-c]quinolin]-6-yl]carbamate], the EC50 in the assay with HCV genotype 1b replicon (K+ salt) came out at 4.78 nM. The IC50 in assay [1] (K+ salt) came to 0.009 nM.
For the compound `Cc1nc2cc(F)c(F)cc2c2c1O[C@]1(CC2)C[C@H]2C(=O)N[C@]3(C(=O)NS(=O)(=O)C4(C)CC4)C[C@H]3/C=C\CCCCC[C@H](NC(=O)OCC3(C)CC3)C(=O)N2C1` [Example 223, (1-methylcyclopropyl)methyl [(2R,6S,12Z,13aS,14aR,16aS)-8′,9′-difluoro-5′-methyl-14a-{[(1-methylcyclopropyl)sulfonyl]carbamoyl}-5,16-dioxo-1,1′,2′,5,6,7,8,9,10,11,13a,14,14a,15,16,16a-hexadecahydrospiro[cyclopropa[e]pyrrolo[1,2-a][1,4]diazacyclopentadecine-2,3′-pyrano[2,3-c]quinolin]-6-yl]carbamate], the EC50 in the assay on HCV genotype 1b replicon came to 11.1 nM. Besides, in assay [1], half-maximal inhibition (IC50) required 0.013 nM.
The corresponding values for `Cc1nc2cc(F)c(F)cc2c2c1O[C@]1(CC2)C[C@H]2C(=O)N[C@]3(C(=O)NS(=O)(=O)C4(C)CC4)C[C@H]3/C=C\CCCCC[C@H](NC(=O)OCC3CC3)C(=O)N2C1` [Example 224, cyclopropylmethyl [(2R,6S,12Z,13aS,14aR,16aS)-8′,9′-difluoro-5′-methyl-14a-{[(1-methylcyclopropyl)sulfonyl]carbamoyl}-5,16-dioxo-1,1′,2′,5,6,7,8,9,10,11,13a,14,14a,15,16,16a-hexadecahydrospiro[cyclopropa[e]pyrrolo[1,2-a][1,4]diazacyclopentadecine-2,3′-pyrano[2,3-c]quinolin]-6-yl]carbamate] are 6.73 nM and 0.019 nM.
In the case of `Cc1nc2cc(F)c(F)cc2c2c1O[C@]1(CC2)C[C@H]2C(=O)N[C@]3(C(=O)NS(=O)(=O)C4(C)CC4)C[C@H]3/C=C\CCCCC[C@H](NC(=O)OCC3CCC3)C(=O)N2C1` [Example 225, cyclobutylmethyl [(2R,6S,12Z,13aS,14aR,16aS)-8′,9′-difluoro-5′-methyl-14a-{[(1-methylcyclopropyl)sulfonyl]carbamoyl}-5,16-dioxo-1,1′,2′,5,6,7,8,9,10,11,13a,14,14a,15,16,16a-hexadecahydrospiro[cyclopropa[e]pyrrolo[1,2-a][1,4]diazacyclopentadecine-2,3′-pyrano[2,3-c]quinolin]-6-yl]carbamate], the EC50 in the assay with HCV genotype 1b replicon amounted to 12.5 nM. The IC50 in assay [1] is 0.031 nM.
As to `Cc1nc2ccc(OC(F)(F)F)cc2c2c1O[C@]1(CC2)C[C@H]2C(=O)N[C@]3(C(=O)NS(=O)(=O)C4(C)CC4)C[C@H]3/C=C\CCCCC[C@H](NC(=O)OC(C)(C)CCS(C)(=O)=O)C(=O)N2C1` [Example 226, 2-methyl-4-(methylsulfonyl)butan-2-yl [(2R,6S,12Z,13aS,14aR,16aS)-5′-methyl-14a-{[(1-methylcyclopropyl)sulfonyl]carbamoyl}-5,16-dioxo-9′-(trifluoromethoxy)-1,1′,2′,5,6,7,8,9,10,11,13a,14,14a,15,16,16a-hexadecahydrospiro[cyclopropa[e]pyrrolo[1,2-a][1,4]diazacyclopentadecine-2,3′-pyrano[2,3-c]quinolin]-6-yl]carbamate], the EC50 in the assay on HCV genotype 1b replicon (K+ salt) was determined as 18 nM. In assay [1] (K+ salt), the IC50 was determined as 0.021 nM.
